Data as given in patent US20250042905A1, “DIHYDROPYRROLO[3,4-C]PYRAZOLE DERIVATIVES AND THEIR USE IN DIAGNOSIS” (AC IMMUNE SA, priority 2021, published 2025).

Molecular target: T1, PD brain-derived alpha-synuclein aggregates (Homo sapiens, UniProt P37840)
T1 construct: PD brain-derived alpha-synuclein aggregates were spotted onto microarray slides; from tissue; host or cells: human Parkinson's disease patient brain
Assay: Micro-radiobinding competition assay for the determination of binding affinity
Protocol: Micro-Radiobinding Competition Assay for the Determination of Binding Affinity
PD brain-derived alpha-synuclein aggregates were spotted onto microarray slides. The slides were incubated with tritiated reference alpha-synuclein ligand at 20 nM or 30 nM and the example compounds (non-radiolabelled) at 1 μM and 100 nM. In some cases, the non-radiolabelled example compounds were further assessed for a range of different concentrations, varying from 0.05 nM to 2 μM. After incubation, slides were washed and scanned by a real-time autoradiography system (BeaQuant, ai4R). Quantification of the signal was performed by using the Beamage image analysis software (ai4R). Non-specific signal was determined with an excess of non-radiolabelled reference alpha-synuclein ligand (2 μM) and specific binding was calculated by subtracting the non-specific signal from the total signal. Competition was calculated as percent, where 0% was defined as the specific binding in the presence of vehicle and 100% as the values obtained in the presence of excess of the non-radiolabelled reference alpha-synuclein ligand. Ki values were calculated in GraphPad Prism7 by applying a nonlinear regression curve fit using a one site, specific binding model. All measurements were performed with at least two technical replicates.
Table 4: Assessment of binding affinity by micro-radiobinding competition assay on human PD brain-derived alpha-synuclein aggregates.

[1] = non-radiolabelled example compound at 100 nM, competition with tritiated reference alpha-synuclein ligand (20 nM or 30 nM), 100% = excess non-radiolabelled reference ligand
[2] = non-radiolabelled example compound at 1 μM, competition with tritiated reference alpha-synuclein ligand (20 nM or 30 nM), 100% = excess non-radiolabelled reference ligand

SMILES: O=C1c2cn(-c3ccc(C(F)(F)F)nn3)nc2CN1c1cccnc1 [Example 35, 5-(pyridin-3-yl)-2-(6-(trifluoromethyl)pyridazin-3-yl)-5,6-dihydropyrrolo[3,4-c]pyrazol-4(2H)-one]
- inhibition at 0.1 µM (non-radiolabelled example compound at 100 nM, competition with tritiated reference alpha-synuclein ligand (20 nM or 30 nM), 100% = excess non-radiolabelled reference ligand, read-out: Competition at 100 nM (%)): 29%
- inhibition at 1 µM (non-radiolabelled example compound at 1 μM, competition with tritiated reference alpha-synuclein ligand (20 nM or 30 nM), 100% = excess non-radiolabelled reference ligand, read-out: Competition at 1 μM (%)): 34%

SMILES: O=C1c2cn(-c3cnc(N4CC[C@H](F)C4)nc3)nc2CN1c1cccnc1 [Example 36, 2-2-[(3S)-3-fluoropyrrolidin-1-yl]pyrimidin-5-yl-5-(pyridin-3-yl)-2H,4H,5H,6H-pyrrolo[3,4-c]pyrazol-4-one]
- Competition at 100 nM (%) [1]: 37%
- Competition at 1 μM (%) [2]: 64%

SMILES: Cl.O=C1c2cn(-c3cnc(N4CC[C@@H](F)C4)nc3)nc2CN1c1cccnc1 [Example 37, 2-2-[(3R)-3-fluoropyrrolidin-1-yl]pyrimidin-5-yl-5-(pyridin-3-yl)-2H,4H,5H,6H-pyrrolo[3,4-c]pyrazol-4-one hydrochloride]
- Ki (concentration range 0.05 nM to 2 μM, nonlinear regression, one site specific binding model): 356 nM
- Competition at 100 nM (%) [1]: 32%
- Competition at 1 μM (%) [2]: 78%
